Source: patent US20120115852A1, “HETEROCYCLIC COMPOUNDS AS AUTOTAXIN INHIBITORS” (Merck Patent Gesellschaft Mit Beschrankter Haftung, priority 2009, published 2012)

Biological target: T1, recombinant autotaxin (Homo sapiens, UniProt Q13822)
T1 construct: made in house; host or cells: Hi5 insect cells (baculovirus)
Experiment: Autotaxin test (enzyme test), Amplex Red fluorescence with LPC substrate
Format: biochemical
Conditions: autotaxin inhibition (enzyme test); for remaining activity at 10 µM: 10 μM compound, read-out: % Control at 10 μM
In short: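 Purified recombinant autotaxin (baculovirus Hi5-expressed) pre-incubated with compound 30 min at 22° C, then LPC (final 75 μM) added and reacted 90 min at 37° C in Tris pH 8 buffer with CaCl2. Choline released was coupled via alkaline phosphatase, choline oxidase and peroxidase to Amplex Red; resorufin fluorescence read in kinetic mode (ex 485/em 612 nm).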

Row | remaining activity at 10 µM [%] | IC50 [nM] | Structure (SMILES)
1 | 22 | > 1000 | Cc1ccc(-c2ccc3c(c2)C(=O)N2CCN(C(=O)CC(C)(C)C)CC2C(=O)N3)cc1 (stereo not drawn) [Compound A105, 2-(3,3-Dimethylbutyryl)-7-p-tolyl-1,3,4,11a-tetrahydro-2H,10H-2,4a,10-triaza-dibenzo[a,d]cycloheptene-5,11-dione]
2 | -37 | 100 to 1000 | O=C1Nc2ccc(-c3ccc(Cl)cc3)cc2C(=O)N2CCN(C(=O)C3(c4ccccc4)CCCC3)CC12 (stereo not drawn) [Compound A106, 7-(4-Chlorophenyl)-2-(1-phenylcyclopentane-carbonyl)-1,3,4,11a-tetrahydro-2H,10H-2,4a,10-triazadibenzo[a,d]cycloheptene-5,11-dione]
3 | 51 | > 1000 | CN1CCC(C)(C(=O)N2CCN3C(=O)c4cc(-c5ccc(Cl)cc5)ccc4NC(=O)C3C2)CC1 (stereo not drawn) [Compound A107, 7-(4-Chlorophenyl)-2-(1,4-dimethylpiperidine-4-carbonyl)-1,3,4,11a-tetrahydro-2H,10H-2,4a,10-triazadibenzo[a,d]cycloheptene-5,11-dione]
4 | 90 |  | Cn1cc(-c2ccc3c(c2)C(=O)N2CCN(C(=O)CC(C)(C)C)CC2C(=O)N3)cn1 (stereo not drawn) [Compound A108, 2-(3,3-Dimethylbutyryl)-7-(1-methyl-1H-pyrazol-4-yl)-1,3,4,11a-tetrahydro-2H,10H-2,4a,10-triaza-dibenzo[a,d]cycloheptene-5,11-dione]
5 | -21 | > 1000 | CC(C)(C)C(=O)N1CCN2C(=O)c3cc(-c4ccc(Cl)cc4)ccc3NC(=O)C2C1 (stereo not drawn) [Compound A109, 7-(4-Chlorophenyl)-2-(2,2-dimethylpropionyl)-1,3,4,11a-tetrahydro-2H,10H-2,4a,10-triaza-dibenzo[a,d]cycloheptene-5,11-dione]
6 | 51 | > 1000 | O=C1Nc2ccc(-c3ccc(Cl)cc3)cc2C(=O)N2CCN(C(=O)C3CCCN3C(=O)c3ccncc3)CC12 (stereo not drawn) [Compound A110, 7-(4-Chlorophenyl)-2-[1-(pyridine-4-carbonyl)-pyrrolidine-2-carbonyl]-1,3,4,11a-tetrahydro-2H,10H-2,4a,10-triazadibenzo[a,d]cycloheptene-5,11-dione]
7 | 3 | > 1000 | O=C1Nc2ccc(-c3ccc(Cl)cc3)cc2C(=O)N2CCN(C(=O)C3CCCN3C(=O)Nc3ccc(Cl)cc3)CC12 (stereo not drawn) [Compound A111, N-(4-Chlorophenyl)-2-[7-(4-chlorophenyl)-5,11-dioxo-3,4,5,10,11,11a-hexahydro-1H-2,4a,10-triaza-dibenzo[a,d]cycloheptene-2-carbonyl]pyrrolidine-1-carboxamide]
8 | 5 | > 1000 | O=C1Nc2ccc(-c3ccc(Cl)cc3)cc2C(=O)N2CCN(C(=O)[C@H](O)C3CCCCC3)CC12 (stereo partly drawn) [Compound A112, 7-(4-Chlorophenyl)-2-((R)-2-cyclohexyl-2-hydroxy-acetyl)-1,3,4,11a-tetrahydro-2H,10H-2,4a,10-triazadibenzo[a,d]cycloheptene-5,11-dione]
9 | -6 | > 1000 | O=C1Nc2ccc(-c3ccc(Cl)cc3)cc2C(=O)N2CCN(C(=O)[C@@H](O)C3CCCCC3)CC12 (stereo partly drawn) [Compound A113, 7-(4-Chlorophenyl)-2-((S)-2-cyclohexyl-2-hydroxy-acetyl)-1,3,4,11a-tetrahydro-2H,10H-2,4a,10-triazadibenzo[a,d]cycloheptene-5,11-dione]
10 | 28 | > 1000 | O=C1Nc2ccc(-c3ccc(Cl)cc3)cc2C(=O)N2CCN(C(=O)[C@@H]3CCCN3)CC12 (stereo partly drawn) [Compound A114, 7-(4-Chlorophenyl)-2-((S)-pyrrolidine-2-carbonyl)-1,3,4,11a-tetrahydro-2H,10H-2,4a,10-triaza-dibenzo[a,d]cycloheptene-5,11-dione]
11 | 80 | > 1000 | CN(C)CCN1CCC[C@H]1C(=O)N1CCN2C(=O)c3cc(-c4ccc(Cl)cc4F)ccc3NC(=O)C2C1 (stereo partly drawn) [Compound A115, 7-(4-Chloro-2-fluorophenyl)-2-[(S)-1-(2-dimethyl-aminoethyl)pyrrolidine-2-carbonyl]-1,3,4,11a-tetrahydro-2H,10H-2,4a,10-triaza-dibenzo[a,d]cycloheptene-5,11-dione]
12 | 71 | > 1000 | CC(=O)N1CCN2C(=O)c3cc(-c4ccc(Cl)cc4F)ccc3NC(=O)[C@H]2C1 [Compound A116, (R)-2-Acetyl-7-(4-chloro-2-fluorophenyl)-1,3,4,11a-tetrahydro-2H,10H-2,4a,10-triaza-dibenzo[a,d]cycloheptene-5,11-dione]
13 | 16 | > 1000 | O=C1Nc2ccc(-c3ccc(Cl)cc3F)cc2C(=O)N2CCN(C(=O)[C@@H]3CCCN3C3CCNCC3)C[C@H]12 [Compound A117, (R)-7-(4-Chloro-2-fluorophenyl)-2-((S)-1-piperidin-4-ylpyrrolidine-2-carbonyl)-1,3,4,11a-tetrahydro-2H,10H-2,4a,10-triazadibenzo[a,d]cycloheptene-5,11-dione]
14 | 8 | 100 to 1000 | CN1CCC(N2CCC[C@H]2C(=O)N2CCN3C(=O)c4cc(-c5ccc(Cl)cc5F)ccc4NC(=O)[C@H]3C2)CC1 [Compound A118, (R)-7-(4-Chloro-2-fluorophenyl)-2-[(S)-1-(1-methylpiperidin-4-yl)pyrrolidine-2-carbonyl]-1,3,4,11a-tetrahydro-2H,10H-2,4a,10-triaza-dibenzo[a,d]cycloheptene-5,11-dione]
15 | 45 | > 1000 | NCCN1CCC[C@H]1C(=O)N1CCN2C(=O)c3cc(-c4ccc(Cl)cc4F)ccc3NC(=O)[C@H]2C1 [Compound A119, (R)-2-[(S)-1-(2-Aminoethyl)pyrrolidine-2-carbonyl]-7-(4-chloro-2-fluorophenyl)-1,3,4,11a-tetrahydro-2H,10H-2,4a,10-triazadibenzo[a,d]cycloheptene-5,11-dione]
16 | 8 | 100 to 1000 | O=C1Nc2ccc(-c3ccc(Cl)cc3F)cc2C(=O)N2CCN(C(=O)[C@@H]3CCCN3C3CCOCC3)C[C@H]12 [Compound A120, (R)-7-(4-Chloro-2-fluorophenyl)-2-[(S)-1-(tetrahydro-pyran-4-yl)pyrrolidine-2-carbonyl]-1,3,4,11a-tetra-hydro-2H,10H-2,4a,10-triazadibenzo[a,d]-cycloheptene-5,11-dione]
17 | 32 | > 1000 | O=C1Nc2ccc(-c3ccc(Cl)cc3F)cc2C(=O)N2CCN(C(=O)[C@@H]3CCCN3C3CCCCC3)C[C@H]12 [Compound A121, (R)-7-(4-Chloro-2-fluorophenyl)-2-((S)-1-cyclohexyl-pyrrolidine-2-carbonyl)-1,3,4,11a-tetrahydro-2H,10H-2,4a,10-triazadibenzo[a,d]cycloheptene-5,11-dione]
18 | 69 |  | N[C@@H](CO)C(=O)N1CCN2C(=O)c3cc(-c4ccc(Cl)cc4F)ccc3NC(=O)[C@H]2C1 [Compound A122, (R)-2-((S)-2-Amino-3-hydroxypropionyl)-7-(4-chloro-2-fluorophenyl)-1,3,4,11a-tetrahydro-2H,10H-2,4a,10-triazadibenzo[a,d]cycloheptene-5,11-dione]
19 | 6 | 100 to 1000 | O=C1Nc2ccc(-c3ccc(Cl)cc3F)cc2C(=O)N2CCN(C(=O)[C@@H]3CCCN3C3CCCNC3)C[C@H]12 (stereo partly drawn) [Compound A123, (R)-7-(4-Chloro-2-fluorophenyl)-2-((S)-1-piperidin-3-ylpyrrolidine-2-carbonyl)-1,3,4,11a-tetrahydro-2H,10H-2,4a,10-triazadibenzo[a,d]cycloheptene-5,11-dione]
20 | 39 | > 1000 | COC[C@H](N)C(=O)N1CCN2C(=O)c3cc(-c4ccc(Cl)cc4F)ccc3NC(=O)[C@H]2C1 [Compound A124, (R)-2-((S)-2-Amino-3-methoxypropionyl)-7-(4-chloro-2-fluorophenyl)-1,3,4,11a-tetrahydro-2H,10H-2,4a,10-triazadibenzo[a,d]cycloheptene-5,11-dione]
21 | 25 | > 1000 | CC(C)(C)CC(=O)N1CCN2C(=O)c3cc(-c4ccc(Cl)cc4F)ccc3NC(=O)[C@@H]2C1 [Compound A125, (S)-7-(4-Chloro-2-fluorophenyl)-2-(3,3-dimethyl-butyryl)-1,3,4,11a-tetrahydro-2H,10H-2,4a,10-triazadibenzo[a,d]cycloheptene-5,11-dione]
22 | 20 | > 1000 | O=C1Nc2ccc(-c3ccc(Cl)cc3F)cc2C(=O)N2CCN(C(=O)[C@@H]3CCCN3C3CCNCC3)C[C@@H]12 [Compound A126, (S)-7-(4-Chloro-2-fluorophenyl)-2-((S)-1-piperidin-4-ylpyrrolidine-2-carbonyl)-1,3,4,11a-tetrahydro-2H,10H-2,4a,10-triazadibenzo[a,d]cycloheptene-5,11-dione]
23 | 42 | > 1000 | CC(C)(C)CC(=O)N1CCN2C(=O)c3cc(-c4ccc(Cl)nc4)ccc3NC(=O)C2C1 (stereo not drawn) [Compound A128, 7-(6-Chloropyridin-3-yl)-2-(3,3-dimethylbutyryl)-1,3,4,11a-tetrahydro-2H,10H-2,4a,10-triaza-dibenzo[a,d]cycloheptene-5,11-dione]
24 | 6 | > 1000 | CC(C)(C)CC(=O)N1CCN2C(=O)c3cc(-c4ccc(Cl)s4)ccc3NC(=O)C2C1 (stereo not drawn) [Compound A129, 7-(5-Chlorothiophen-2-yl)-2-(3,3-dimethylbutyryl)-1,3,4,11a-tetrahydro-2H,10H-2,4a,10-triaza-dibenzo[a,d]cycloheptene-5,11-dione]
25 | -1 | > 1000 | CC(C)(C)CC(=O)N1CCN2C(=O)c3cc(-c4ccc(F)cc4)ccc3NC(=O)C2C1 (stereo not drawn) [Compound A130, 2-(3,3-Dimethylbutyryl)-7-(4-fluorophenyl)-1,3,4,11a-tetrahydro-2H,10H-2,4a,10-triaza-dibenzo[a,d]cycloheptene-5,11-dione]
